Results reported in US10870832B2, “Use of small molecules to enhance MAFA expression in pancreatic endocrine cells” (Janssen Biotech, Inc., priority 2014, dated 2020).

Experiments:
Type in all cases: cell-based, human
[1] = test system: MAFA expression; assay: Stage 7 treatment, real-time PCR of MAFA (Example 6); conditions: Stage 7, day 7, 2 μM in Stage 7 medium, H1-derived cells, mRNA
Experimental: (§1) Cells of the human embryonic stem cell line H1 (WA01) were seeded as single cells at 1×10^5 cells/cm^2 on MATRIGEL™ (1:30 dilution) coated dishes in E8 media. At about 70 to 80% confluency, the cultures were washed in 1× incomplete DPBS followed by incubation with 1× TrypLET™ Express Enzyme for 3 to 5 minutes at 37° C. The released cells were rinsed with E8 and spun at 1000 rpm for 5 minutes. The resulting cell pellet was resuspended in E8 supplemented with 10 μM Y-27632 and the single cell suspension was seeded at approximately 1.3 to 1.5×10^5 cells/cm^2. The cultures were fed every day with E8 medium and differentiation, according to the following protocol, was initiated 48 hrs. following seeding resulting in an about 90% starting confluency.
(§2) Stage 6 cells were cultured for seven days in BLAR medium supplemented with a 1:100 dilution of ITS-X; 20 mM glucose (final); 1.5 g/L sodium bicarbonate; 2% FAF-BSA; 10 μg/ml of heparin, 10 μM ZnSO4, 1 μM T3 as 3,3′, 5-triiodo-L-thyronine sodium salt, 10 μM ALK5 inhibitor II, 1 mM N-acetyl cysteine. […]
(§3) At Stage 7, day 7, mRNA was collected and expression of MAFA, UCN3, PDX1, NKX6.1, insulin and G6PC2 evaluated as compared to undifferentiated human stem cells. […]

[2] = test system: MAFA expression; assay: Stage 7 treatment, real-time PCR of MAFA (Example 7); conditions: Stage 7, day 14, 2 μM R428 or 2-5 μM inhibitor substituted for R428, H1-derived cells, mRNA
Experimental: as §1, with “TrypLE™” for “TrypLET™”
Stage 6 cells were cultured for fourteen days in BLAR medium supplemented with a 1:100 dilution of ITS-X; 20 mM glucose (final); 1.5 g/L sodium bicarbonate; 2% FAF-BSA; 10 μg/ml of heparin, 10 μM ZnSO4, 1 μM T3 as 3,3′, 5-triiodo-L-thyronine sodium salt, 10 μM ALK5 inhibitor II, 1 mM N-acetyl cysteine. Some cultures also included one of 2 μM R428, 2-5 μM RSK inhibitor II (2-(3,5-Difluoro-4-hydroxy-anilino)-8-isopentyl-5,7-dimethyl-7H-pteridin-6-one) (EMD Millipore; Catalog No, 559286-5MG), 2-5 μM aurora kinase inhibitor II (EMD Millipore, or a combination of 2-5 μM RSK inhibitor II and 2-5 μM aurora kinase II inhibitor.
At Stage 7, day 14, mRNA was collected and compared to undifferentiated human stem cells.

[3] = test system: UCN3 expression; assay: Stage 7 treatment, real-time PCR of UCN3 (Example 6); conditions: Stage 7, day 7, 2 μM in Stage 7 medium, H1-derived cells, mRNA
Experimental: as §1, §2, §3

[4] = test system: G6PC2 expression; assay: Stage 7 treatment, real-time PCR of G6PC2 (Example 6); conditions: Stage 7, day 7, 2 μM in Stage 7 medium, H1-derived cells, mRNA
Experimental: as §1, §2, §3

[5] = test system: MAFA expression; assay: Small molecule screen at Stage 6 or 7, real-time PCR (Example 2); conditions: added at Stage 6, 1 μM, H1-derived cells at air-liquid interface
Experimental: Cells of the human embryonic stem cell line H1 (WA01) at passage 42 were seeded as single cells at 1×10^5 cells/cm^2 on MATRIGEL™ (1:30 dilution)-coated dishes in a media comprising of DMEM-F12, GlutaMAX™ (1:100 dilution), 0.25 mM ascorbic acid, 100 ng/ml of FGF2 (R & D systems, MN), 1 ng/ml of TGF-β, ITS-X (1:100 dilution), 2% FAF-BSA, and 20 ng/ml of IGF-1, supplemented with 10 μM of Y-27632. Forty-eight hours post-seeding, the cultures were washed in incomplete PBS (phosphate buffered saline without Mg or Ca) followed by incubation with 1× TrypLE™ Express Enzyme (Life Science; Catalog No. 14190) for 3 to 5 minutes at 37° C. The released cells were rinsed with DMEM-F12 and spun at 1000 rpm for 5 minutes. The resulting cell pellet was resuspended in DMEM-F12 supplemented with 10 μM Y-27632, 1× GlutaMAX™, 0.25 mM ascorbic acid, 100 ng/ml FGF2, 1 ng/ml TGF-β, ITS-X at a 1:100 dilution, 2% FAF-BSA and 20 ng/ml of IGF-1 and the single cell suspension was seeded at approximately 1.3 to 1.5×10^5 cells/cm^2. The cultures were fed every day with medium and differentiation, according to the following protocol, was initiated 48 hours following seeding resulting in an about 90% starting confluency. […]
At Stages 6 or 7, various small molecules were added and their effect was evaluated by real-time PCR.

## COc1cc2ncnc(Nc3ccc(NC(=O)c4ccccc4)cc3)c2cc1OC [aurora kinase inhibitor II, 4-(4′-Benzamidoanilino)-6,7-dimethoxyquinazoline]
[1]
  MAFA expression: increase in MAFA expression
[2]
  MAFA expression: restored MAFA expression
[3]
  UCN3 expression: maintenance of UCN3 and G6PC2 expression
[4]
  G6PC2 expression: maintenance of UCN3 and G6PC2 expression

## CC(C)N(C[C@H]1O[C@@H](n2cnc3c(N)ncnc32)[C@H](O)[C@@H]1O)[C@H]1C[C@@H](CCc2nc3ccc(C(C)(C)C)cc3[nH]2)C1 [EPZ-5676, 9H-Purin-6-amine, 9-[5-deoxy-5-[[cis-3-[2-[6-(1,1-dimethylethyl)-1H-benzimidazol-2-yl]ethyl]cyclobutyl](1-methylethyl)amino]-β-D-ribofuranosyl]-]
[5]
  expression of MAFA as compared to untreated cultures: significantly upregulated

## CC(C)CCN1c2nc(Nc3cc(F)c(O)c(F)c3)ncc2N(C)C(=O)C1C (racemic) [RSK inhibitor, 2-(3,5-Difluoro-4-hydroxy-anilino)-8-isopentyl-5,7-dimethyl-7H-pteridin-6-one]
[2]
  MAFA expression: restored MAFA expression
